Data set [1] relates to dd strain male mice. Kind of data set: Acute toxicity test. As to conditions: 72 hours. The data set is classed as in vivo. The text has this:
(§1) The results of analgesic activity test and acute toxicity test performed on the compounds of this invention and aminopyrin as control are as described below.
(§2) Groups of each 4-6 dd strain male mice (about 19 g in body weight) were used for the test. […] When the median lethal dose was not obtainable, the dose (mg/kg) and the ratio (number of dead animals)/(number of test animals) were shown in Table 2.

Data set [2] has as its system dd strain male mice. Kind of data set: Analgesic activity test: modified Haffner method. The data set is classed as in vivo. The conditions noted are these: 30 min before 2 mg/kg morphine hydrochloride s.c., tail clamp, 95% confidence limits in parentheses; for ED50: Mus musculus. The protocol:
as §1
Groups of each 10 dd strain male mice (about 19 g in body weight) were used for the test. Thirty minutes after the oral administration of the drug under test, 2 mg/kg of morphine hydrochloride was subcutaneously injected. After 15 minutes, the basal part of the mouse tail was clamped with Kocher's forcepts four times at each time interval of 15 minutes to observe the pain reaction of each mouse. The percentage effectiveness was calculated by the formula [formula] From the effectiveness data, the median effective dose (ED50) and its 95% confidence limits were calculated by the method of Litchfield-Wilcoxon.

In data set [3] the test system is dd strain male mice. In words: Analgesic activity test: acetic acid-induced stretching method. As to conditions: Mus musculus, oral, 30 min before 0.6% acetic acid i.p., 95% confidence limits in parentheses on the next line. The data set is classed as in vivo. The protocol:
as §1
Groups of each 10 dd strain male mice (about 18 g in body weight) were used for the test. Each mouse was orally administered with the drug being tested. Thirty minutes after the administration, 0.1 ml/10 g of a 0.6% acetic acid solution was intraperitoneously injected. […] The percentage effectiveness was determined by the formula [formula] From the effectiveness data, the median effective dose (ED50) and its 95% confidence limits were calculated by the method of Litchfield-Wilcoxon.

The next data set in a line: Acute toxicity test. The data set is classed as in vivo, mice. As to conditions: mouse, in vivo; oral, 72 hours of observation; dd strain male mice; 95% confidence limits in parentheses on the next line.
From the text: as §1, §2

Counter-ions that a name gives are not always drawn.

Broadly, the ED50 is the midpoint of the dose-response relation. The term LD50 denotes the dose expected to kill half of the subjects tested.

On to `Clc1ccc(N2CCN(CC3CC3)CC2)cc1Cl` [Compound 5], for which the “Acute toxicity, (number of dead animals)/(number of test animals)” value (from here on “Acute toxicity”) in the data set on dd strain male mice [1] (250 mg/kg oral) was 0/6; with dd strain male mice [1] (500 mg/kg oral), 2/6; with dd strain male mice [1] (1000 mg/kg oral), 6/6. Also, the results for the ED50 in the data set with dd strain male mice [2] (po) and in the data set with dd strain male mice [3] were 7.2 mg/kg and 17.2 mg/kg, respectively.
Consider `FC(F)(F)c1cc(N2CCN(CC3CC3)CC2)ccc1Cl` [Compound 11], for which the “Acute toxicity” value in the data set on dd strain male mice [1] (250 mg/kg oral) is 0/6; in the data set on dd strain male mice [1] (500 mg/kg oral) it was 5/6; in the data set with dd strain male mice [1] (1000 mg/kg oral), 6/6. The ED50 in the data set with dd strain male mice [2] (po) came to 5.8 mg/kg; with dd strain male mice [3], 20.2 mg/kg.
As to `FC(F)(F)c1cccc(N2CCN(CC3CC3)CC2)c1.O=C(O)CC(O)(CC(=O)O)C(=O)O` [Compound 10, 1-(Cyclopropylmethyl)-4-(3-trifluoromethylphenyl)piperazine citrate], the “Acute toxicity” value is recorded as 0/6 with dd strain male mice [1] (250 mg/kg oral), 2/6 with dd strain male mice [1] (500 mg/kg oral) and 6/6 in the data set with dd strain male mice [1] (1000 mg/kg oral). The ED50 with dd strain male mice [2] (oral) is 2.5 mg/kg; in the data set on dd strain male mice [3], 8.7 mg/kg.
In the case of `Cl.Cl.FC(F)(F)c1cccc(N2CCN(CC3CC3)CC2)c1` [Compound 6, 1-(cyclopropylmethyl)-4-(3-trifluoromethylphenyl)piperazine dihydrochloride], the “Acute toxicity” value in the data set on dd strain male mice [1] (250 mg/kg oral) is reported as 0/6; with dd strain male mice [1] (500 mg/kg oral), 4/6; with dd strain male mice [1] (1000 mg/kg oral), 6/6. For the same compound, the ED50 worked out at 3.7 mg/kg in the data set with dd strain male mice [2] (po) and 2.8 mg/kg with dd strain male mice [3].
`Fc1ccccc1N1CCN(CC2CC2)CC1` [Compound 1]: the “Acute toxicity” value in the data set on dd strain male mice [1] (100 mg/kg (so in the source) oral) is 6/6; with dd strain male mice [1] (250 mg/kg oral) it was 2/6; in the data set on dd strain male mice [1] (500 mg/kg oral), 3/6. Also, the ED50 was 11 mg/kg in the data set on dd strain male mice [2] (po) and 12.6 mg/kg in the data set on dd strain male mice [3].
For `FC(F)(F)c1cccc(N2CCN(CC3CC3)CC2)c1` [Compound 7], the entries for the “Acute toxicity” value in the data set with dd strain male mice [1] (250 mg/kg oral), in the data set on dd strain male mice [1] (500 mg/kg oral) and with dd strain male mice [1] (1000 mg/kg oral) were 0/6, 2/6 and 6/6, respectively. Besides, the 50% effective dose (ED50) in the data set on dd strain male mice [2] (po) is 5.5 mg/kg.
For `Clc1cccc(N2CCN(CC3CC3)CC2)c1` [Compound 3], the entries for the “Acute toxicity” value in the data set with dd strain male mice [1] (250 mg/kg oral), with dd strain male mice [1] (500 mg/kg oral) and in the data set on dd strain male mice [1] (1000 mg/kg oral) were 0/6, 2/6 and 6/6, respectively. The ED50 in the data set with dd strain male mice [2] (po) was determined as 13.8 mg/kg.
On to `C=CCN1CCN(c2cccc(C(F)(F)F)c2)CC1.Cl.Cl` [Compound 14, 1-Allyl-4-(3-trifluoromethylphenyl)piperazine dihydrochloride], for which the “Acute toxicity” value is 0/6 with dd strain male mice [1] (250 mg/kg oral), 4/6 in the data set on dd strain male mice [1] (500 mg/kg oral) and 6/6 in the data set on dd strain male mice [1] (1000 mg/kg oral). For the same compound, the ED50 with dd strain male mice [2] (po) was found to be 7 mg/kg; in the data set on dd strain male mice [3] it was 13.6 mg/kg.
With `Clc1ccc(N2CCN(CC3CC3)CC2)cc1` [Compound 4], the “Acute toxicity” value with dd strain male mice [1] (250 mg/kg oral) was 0/6; with dd strain male mice [1] (500 mg/kg oral), 5/6; in the data set with dd strain male mice [1] (1000 mg/kg oral), 6/6. The ED50 with dd strain male mice [2] (po) was found to be 6.3 mg/kg; in the data set on dd strain male mice [3], 17.9 mg/kg.
On to `Cl.Cl.Fc1ccc(N2CCN(CC3CC3)CC2)cc1` [Compound 2, 1-(cyclopropylmethyl)-4-(4-fluorophenyl)piperazine dihydrochloride], for which the “Acute toxicity” value was 1/6 in the data set on dd strain male mice [1] (250 mg/kg oral), 5/6 in the data set on dd strain male mice [1] (500 mg/kg oral) and 6/6 in the data set on dd strain male mice [1] (1000 mg/kg oral). Moreover, the ED50 in the data set on dd strain male mice [2] (po) is 13.2 mg/kg; with dd strain male mice [3] it was 9.4 mg/kg.
With `FC(F)(F)c1cccc(N2CCN(CC3CC3)CC2)c1` [Compound 9], the “Acute toxicity” value was 0/6 in the data set on dd strain male mice [1] (250 mg/kg oral), 3/6 in the data set with dd strain male mice [1] (500 mg/kg oral) and 6/6 in the data set on dd strain male mice [1] (1000 mg/kg oral). In addition, the “Analgesic activity, ED50, Haffner method” value in the data set with dd strain male mice [2] (oral) is on record as 4.9 mg/kg.
With `CC(C)N1CCN(c2cccc(C(F)(F)F)c2)CC1` [Compound 12, 1-(3-trifluoromethyl)-4-isopropylpiperazine dihydrochloride], the results for the “Acute toxicity” value in the data set on dd strain male mice [1] (250 mg/kg oral), with dd strain male mice [1] (500 mg/kg oral) and in the data set on dd strain male mice [1] (1000 mg/kg oral) were 0/6, 6/6 and 6/6, respectively. In addition, the ED50 was determined as 4.9 mg/kg in the data set with dd strain male mice [2] (po) and 4.2 mg/kg in the data set on dd strain male mice [3].
As to `Cc1c(N(C)C)c(=O)n(-c2ccccc2)n1C` [Aminopyrin, aminopyrin, reference compound], the LD50 at 72 h in “Acute toxicity test” is 750 mg/kg. Besides, the ED50 in the data set with dd strain male mice [2] (po) turned out to be 65 mg/kg; in the data set with dd strain male mice [3], 63 mg/kg.
